According to patent publication US20060009432A1, “Use of neurosteroids to treat neuropathic pain” (priority 2004, published 2006):

Legend:
[1] = test system: L5/L6 spinal nerve ligation (SNL) rats; experiment: Tactile allodynia (von Frey) in spinal nerve ligation model; type: in vivo, rat; details: summary, SNL animals
Method: (§1) (A) L5/L6 spinal nerve ligation (SNL) was performed as described by Kim and Chung (Pain, 50,355-363(1992)). Animals (mice or rats) were anesthetized with halothane. An incision was made lateral to the lumbar spine. The right L5 and L6 spinal nerves were isolated and tightly ligated distal to the dorsal root ganglion. The incision was closed, and animals were allowed to recover for 10 days. Sham-operated animals were prepared in an identical fashion except that the spinal nerves were not ligated.
The protocol was repeated until three changes in behavior were determined. The maximal cut-off size values used were 15 g for rats and 3.5 g for mice. The 50% paw withdrawal threshold was determined as 10Xf+kδ/10,000, where Xf=the value of the last von Frey filament used, k=Dixon value for the positive/negative pattern, and δ=the logarithmic difference between stimuli.
Tactile allodynia response was measured 15, 30, 45, 60, 90 and 120 minutes after i.p. administration of ganaxolone (at 1 mg/kg, 3 mg/kg, 6 mg/kg or 10 mg/kg). Table 2 provides the resulting measurement of tactile allodynia response in groups of five rats per dosage level.

SNL rats = experiment: Thermal withdrawal (Hargreaves) in spinal nerve ligation model; type: in vivo, rat
Method: as §1
(§2) (B) The method of Hargreaves et al. (Pain, 32, 77-88 (1988)) was used to measure the thermal withdrawal latency in SNL rats. Animals were acclimated within Plexiglas enclosures on a clear glass plate maintained at 30° C. A radiant heat source (high-intensity projector lamp) was focused onto the plantar surface of the paw. When the paw was withdrawn, a motion detector halted the stimulus and a timer. A maximal cut-off of 40 sec for rats and 30 sec for mice was used to prevent tissue damage. Differences in responses between groups were tested by using the standard ANOVA statistical test followed by post hoc testing with Student's t test with Bonferroni's correction. Significance was defined as P<0.05.
Thermal withdrawal response was measured 15, 30, 45, 60, 90 and 120 minutes after i.p. administration of ganaxolone (at 1 mg/kg, 3 mg/kg, 6 mg/kg or 10 mg/kg). Table 3 provides the resulting measurement of thermal withdrawal in groups of five rats per dosage level.

[2] = test system: rats receiving sham surgery; experiment: Thermal withdrawal in rats receiving sham surgery; type: in vivo, rat
Method: as §1, §2
The thermal withdrawal response was measured using the same protocol in rats receiving sham surgery. Table 4 provides the resulting measurement of thermal withdrawal in groups of five rats per dose level.

migraine = details: phase 2 clinical trial for migraine; cited from earlier work

In the case of `CC(=O)[C@H]1CC[C@H]2[C@@H]3CC[C@H]4C[C@](C)(O)CC[C@]4(C)[C@H]3CC[C@]12C` [ganaxolone, 3α-hydroxy-3β-methyl-5α-pregnan-20-one], the “Effect on % Activity” value [1] is reported as “increases the % Activity”, the “% Activity ± s.e.m. (thermal withdrawal)” value (SNL rats; 1 mg/kg i.p., 15 min) is reported as 24.59 ± 14.93% and the “% Activity ± s.e.m. (thermal withdrawal)” value (SNL rats; 1 mg/kg i.p., 30 min) is reported as 27.99 ± 17.71%. The “% Activity ± s.e.m. (thermal withdrawal)” value (SNL rats; 1 mg/kg i.p., 45 min) was 3.98 ± 2.63%, the “% Activity ± s.e.m. (thermal withdrawal)” value (SNL rats; 1 mg/kg i.p., 60 min) was 12.62 ± 8.69% and the “% Activity ± s.e.m. (thermal withdrawal)” value (SNL rats; 1 mg/kg i.p., 90 min) was 17.40 ± 8.65%. For the same compound, the “% Activity ± s.e.m. (thermal withdrawal)” value (SNL rats; 1 mg/kg i.p., 120 min) was 12.13 ± 9.25%, the “% Activity ± s.e.m. (thermal withdrawal)” value (SNL rats; 3 mg/kg i.p., 15 min) was 37.15 ± 18.52% and the “% Activity ± s.e.m. (thermal withdrawal)” value (SNL rats; 3 mg/kg i.p., 30 min) was 48.03 ± 22.45%. For the same compound, the “% Activity ± s.e.m. (thermal withdrawal)” value (SNL rats; 3 mg/kg i.p., 45 min) was 19.84 ± 12.97%, the “% Activity ± s.e.m. (thermal withdrawal)” value (SNL rats; 3 mg/kg i.p., 60 min) was 14.25 ± 10.87% and the “% Activity ± s.e.m. (thermal withdrawal)” value (SNL rats; 3 mg/kg i.p., 90 min) was 4.18 ± 4.18%. For the same compound, the “% Activity ± s.e.m. (thermal withdrawal)” value (SNL rats; 3 mg/kg i.p., 120 min) was 16.57 ± 11.76%, the “% Activity ± s.e.m. (thermal withdrawal)” value (SNL rats; 6 mg/kg i.p., 15 min) was 79.03 ± 10.50% and the “% Activity ± s.e.m. (thermal withdrawal)” value (SNL rats; 6 mg/kg i.p., 30 min) was 70.78 ± 11.53%. For the same compound, the “% Activity ± s.e.m. (thermal withdrawal)” value (SNL rats; 6 mg/kg i.p., 45 min) was 43.72 ± 10.03%, the “% Activity ± s.e.m. (thermal withdrawal)” value (SNL rats; 6 mg/kg i.p., 60 min) was 60.94 ± 10.27% and the “% Activity ± s.e.m. (thermal withdrawal)” value (SNL rats; 6 mg/kg i.p., 90 min) was 42.83 ± 10.41%. The “% Activity ± s.e.m. (thermal withdrawal)” value (SNL rats; 6 mg/kg i.p., 120 min) was 10.88 ± 6.34%, the “% Activity ± s.e.m. (thermal withdrawal)” value (SNL rats; 10 mg/kg i.p., 15 min) was 70.07 ± 18.30% and the “% Activity ± s.e.m. (thermal withdrawal)” value (SNL rats; 10 mg/kg i.p., 30 min) was 46.91 ± 14.25%. The “% Activity ± s.e.m. (thermal withdrawal)” value (SNL rats; 10 mg/kg i.p., 45 min) was 47.36 ± 12.97%, the “% Activity ± s.e.m. (thermal withdrawal)” value (SNL rats; 10 mg/kg i.p., 60 min) was 41.45 ± 10.90% and the “% Activity ± s.e.m. (thermal withdrawal)” value (SNL rats; 10 mg/kg i.p., 90 min) was 33.58 ± 7.53%. For the same compound, the “% Activity ± s.e.m. (thermal withdrawal)” value (SNL rats; 10 mg/kg i.p., 120 min) was 23.87 ± 4.35%, the Sedation (SNL rats; 10 mg/kg i.p., thermal withdrawal test) was “sedated four of the five rats for about one hour” and the “% Activity (thermal withdrawal)” value ([2]; 3 mg/kg, 15 min) was 11.87 ± 7.34%. For the same compound, the “% Activity (thermal withdrawal)” value ([2]; 3 mg/kg, 30 min) was 3.25 ± 2.71%, the “% Activity (thermal withdrawal)” value ([2]; 3 mg/kg, 45 min) was 3.62 ± 3.62% and the “% Activity (thermal withdrawal)” value ([2]; 3 mg/kg, 60 min) was 1.98 ± 1.98%. For the same compound, the “% Activity (thermal withdrawal)” value ([2]; 3 mg/kg, 90 min) was 2.22 ± 1.61%, the “% Activity (thermal withdrawal)” value ([2]; 3 mg/kg, 120 min) was 1.39 ± 1.39% and the “% Activity (thermal withdrawal)” value ([2]; 6 mg/kg, 15 min) was 0.00 ± 0.00%. For the same compound, the “% Activity (thermal withdrawal)” value ([2]; 6 mg/kg, 30 min) was 0.00 ± 0.00%, the “% Activity (thermal withdrawal)” value ([2]; 6 mg/kg, 45 min) was 3.98 ± 3.98% and the “% Activity (thermal withdrawal)” value ([2]; 6 mg/kg, 60 min) was 2.95 ± 2.95%. The “% Activity (thermal withdrawal)” value ([2]; 6 mg/kg, 90 min) was 1.73 ± 1.73%, the “% Activity (thermal withdrawal)” value ([2]; 6 mg/kg, 120 min) was 0.41 ± 0.41% and the “% Activity (thermal withdrawal)” value ([2]; 10 mg/kg, 15 min) was 24.54 ± 19.33%. For the same compound, the “% Activity (thermal withdrawal)” value ([2]; 10 mg/kg, 30 min) was 22.60 ± 11.64%, the “% Activity (thermal withdrawal)” value ([2]; 10 mg/kg, 45 min) was 8.03 ± 4.26% and the “% Activity (thermal withdrawal)” value ([2]; 10 mg/kg, 60 min) was 0.65 ± 0.65%. The “% Activity (thermal withdrawal)” value ([2]; 10 mg/kg, 90 min) was 0.28 ± 0.28%, the “% Activity (thermal withdrawal)” value ([2]; 10 mg/kg, 120 min) was 0.02 ± 0.02% and the “Benefit on time to pain relief” value (migraine) was “failed to show benefit”.
